Entries after “also recorded” stand apart in the source; their conditions may differ.
B1: TGF β2: transforming growth factor β2 (R&D Systems; 302-B2), inducer of endothelial-mesenchymal transition and cardiac fibrosis (protein, UniProt P61812 303-414, looked up)
Transforming growth factor …: ALDAAYCFRNVQDNCCLRPLYIDFKRDLGWKWIHEPKGYNANFCAGACPYLWSSDTQHSRVLSLYNTINPEASASPCCVSQDLEPLTILYYIGKTPKIEQLSNMIVKSCKCS

How the values were obtained:
[1] = tested on: cardiac tissue mimetics (CTMs); assay: CTM vascularisation (GFP-HUVEC sprout length, thickness, branch points); assay type: cell-based, rat, human; conditions: 200 μM PE with 1 μM Propranolol or 50 μM Metoprolol, 10 days, vs 0.1% DMSO; FIGS. 21, 22
HUVEC spheroids = assay: Spheroid-based angiogenic sprouting assay; assay type: cell-based, human; conditions: for endothelial sprouting of HUVEC spheroids with supernatants of CM cultured with PE plus β-blocker: neonatal rat CM 72 hours with 200 μM PE + 1 μM Propranolol or 50 μM Metoprolol, vs PE alone, FIG. 25
Protocol: After 72 hours, cell culture supernatants were centrifuged (500×g, 5 minutes) to deplete dead cells and stored at −80° C.
Endothelial cell sprouting was studied by in vitro spheroid-based angiogenesis assays. In brief, HUVECs were trypsinized and transferred into a mixture of fully supplemented EBM™ and methylcellulose (80%:20%). […] After 24 hours, spheroids were collected, pelleted (200×g, 3 minuted), resuspended in methylcellulose supplemented with FCS (80%:20%) and embedded in a collagen Type-I gel (Corning; 354236). HUVEC spheroids were then either cultured with fully supplemented EBM (+/−VEGF (50 ng/mL; BioLegend; 583702) or +/−PE (200 μM)), maintenance medium or conditioned cell culture medium.

HUVEC = assay: Tube formation assay; assay type: cell-based, human; conditions: 1 μM Propranolol or 50 μM Metoprolol, 24 hours on Matrigel, vs Ctrl. and 0.1% DMSO; FIGS. 23, 24
Protocol: Tube formation assay was performed as previously described (J. U. G. Wagner, E. Chavakis, E. M. Rogg, M. Muhly-Reinholz, S. F. Glaser, S. Gunther, D. John, F. Bonini, A. M. Zeiher, L. Schaefer, M. J. Hannocks, R. A. Boon, S. Dimmeler, 2018, Arterioscler Thromb Vasc Biol 38(5), 1170-1177). Briefly, in vitro tube formation was performed with 2×10^4 HUVECs cultured in 100 μL of fully supplemented EBM™ in 96-well plates (Greiner Bio-One GmbH) that had been coated with 100 μL Matrigel® (Corning; 356234).

[2] = tested on: cardiac tissue mimetics (CTMs); assay: CTM size measurement; conditions: 200 μM PE + 1 μM Propranolol / 50 μM Metoprolol vs PE + 0.1% DMSO; FIG. 39
[3] = tested on: cardiac tissue mimetics (CTMs); assay: Contractility measurement of CTMs (spontaneous beats per minute; pacing at 1 Hz and 15 V); conditions: 200 μM PE with 1 μM Propranolol or 50 μM Metoprolol, 10 days, vs PE + 0.1% DMSO; FIG. 20
mature CTMs = assay: Injury assay on mature CTMs (immunofluorescence, SHG, Sirius red); assay type: cell-based, rat, human
Protocol: In case of whole mount stainings, CTMs were permeabilized with 0.2% Triton® X-100 in PBS for 1 hour at room temperature followed by blocking with 5% horse serum (Sigma-Aldrich) in PBS for 30 minutes at room temperature. Primary antibodies (see Table 1) were diluted 1:200 in 5% horse serum and incubated over night at 4° C. Before using the secondary antibody (see table below), CTMs were washed three times with PBS containing 1% Tween 20 and 0.002% Triton® X-100 (referred as PBT from here after) for 20 minutes at room temperature. Secondary antibodies (1:500) and DAPI (1:1000; Carl-Roth GmbH & Co. KG) were diluted in 5% horse serum together and incubated for 4 hours at room temperature in the dark. […] Cryo-sections were prepared by embedding fixed spheroids in O.C.T medium (Tissue-Tek), snap-freezing them in liquid nitrogen and cutting them in 10 μm thick sections. Sections were permeabilized and blocked for one hour in 0.1% Triton® X100 (in PBS+BSA). Primary antibody incubated with the sections diluted 1:50-1:100 in 1 mM MgCl2, 1 mM CaCl2, 0.1 mM MnCl2, 1% Triton® X-100 or 0.2% saponin over night at 4° C. The next day, sections were washed trice with 0.1% Triton® X100/PBS or 0.2 saponin (five minutes each) and incubated with the secondary antibody diluted 1:200 in 0.1% Triton® X100 or 0.2% saponin (in PBS) for one hour at room temperature in the dark. Finally, sections were washed again trice with 0.1% Triton® X100/PBS or 0.2% saponin and mounted with mounting medium containing DAPI or Hoechst 33342. Endothelial cells were stained with Isolectin B4.
The second-harmonics generation imaging was performed on an upright spectral multiphoton microscope (Leica TCS SP8 DIVE, non-descanned spectral detectors, objective HC IRAPO L 25×/1.00 W) using 10 μm thick CTM sections. A 1045 nm laser was used for SHG and the signal was detected with a PMT and a detection window from 517 nm to 527 nm. A second detection window was used to record autofluorescence for comparison (552 nm to 565 nm).
Sirius red staining was used to determine collagen deposition and fibrosis in paraffin sections of young versus aged mice hearts. In a first step, the paraffin sections were deparaffinised with xylene (twice 10 minutes) and an ethanol series of 100%, 95%, 80%, 70% and 50% ethanol (5 minutes each step), before washing the sections with water and PBS (5 minutes each step). In a second step, a 0.1% Picrosirius Red solution was prepared by solving 0.5 g Sirius Red (Waldeck GmbH) in 500 mL picric acid (Sigma-Aldrich) that incubated with the deparaffinised sections for 1 hour. After washing two times with acidified water, the sections were dehydrated with 100% ethanol, cleared with xylene and mounted with Pertex (Medite) […]

Molecule	angiogenic sprouting in PE-treated CTMs [1]	endothelial sprouting of HUVEC spheroids with supernatants of CM cultured with PE plus β-blocker (HUVEC spheroids)	direct effect on HUVEC tube formation (accumulated tube length) (HUVEC)	PE-induced hypertrophic growth (CTM size, fold change) [2]	frequency of CTM contraction (beats per minute) [3]	EC spheroid growth / vascular network growth and branching (cumulative sprout length), direct treatment (HUVEC spheroids)	endothelial-mesenchymal transition (ECs expressing vimentin, SM22α, collagen III) (mature CTMs; mature CTMs treated 3 days with TGF β2, FIGS. 32, 40)	cardiac fibroblast activation (vimentin staining) (mature CTMs; mature CTMs with or without TGF β2, FIG. 28)	CTM vascularization (angiogenic sprouting) (mature CTMs; mature CTMs, 200 μM PE + 10 ng/mL TGF β2, 3 days, vs PE, FIGS. 26, 27)	collagen deposition (SHG, Sirius Red staining) (mature CTMs; mature CTMs, PE + 10 ng/mL TGF β2, 3 days, FIGS. 29-31)
CC(C)NCC(O)COc1cccc2ccccc12 (centres unmarked) [Propranolol]	significant decrease	no significant alterations	no differences; also recorded: could not be detected	diminished	significantly decreased; also recorded: reduced	–	–	–	–	–
VEGF	–	–	–	–	–	significantly increased	–	–	–	–
COCCc1ccc(OCC(O)CNC(C)C)cc1 (centres unmarked) [Metoprolol]	significant decrease	no significant alterations	no differences; also recorded: could not be detected	–	significantly decreased; also recorded: reduced	–	–	–	–	–
B1	–	–	–	–	–	–	occurs; also recorded: single ECs expressing vimentin were found	evidence of cardiac fibroblast activation	slightly increased; also recorded: failed to reach significance	induced; also recorded: augments

Reference: US12534707B2, “Method for generating cardiac tissue mimetics” (GENOME BIOLOGICS UG, priority 2019, dated 2026)
